Consider 26 compounds from US7135466B2 (Kirin Beer Kabushiki Kaisha, priority 1999, dated 2006).

Molecules are shown by their SMILES. pIC50: −log10 of the molar value.

The assay addresses T1, PDGF-Ra (Homo sapiens, UniProt P16234).
T1 construct: host or cells: G-292 human osteosarcoma cells
As to the kind of experiment: Inhibitory activity against PDGF-Ra phosphorylation by PDGF-AA stimulation using G292. The format is cell-based. The conditions noted are these: for pIC50: > means inhibition at indicated concentration not more than 50%, < and << not less than 50%, read-out: PDGF (E) IC50; for inhibition at 0.1 µM: G292, figure in parentheses in >100( ), at 100 nM, read-out: PDGF (E) inhibition (%) at 100 nM. The procedure, abridged: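 Phosphorylated PDGF-Ra was measured colorimetrically (450 nm) after tyrosine-phosphorylated proteins from G-292 lysates were bound to PY-20-coated wells and detected with anti-PDGF-Ra antibody. Compound preincubation lasted 1 hr, followed by 50 ng/ml PDGF-AA for 5 min.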

T1 sequence (P16234 24-1089): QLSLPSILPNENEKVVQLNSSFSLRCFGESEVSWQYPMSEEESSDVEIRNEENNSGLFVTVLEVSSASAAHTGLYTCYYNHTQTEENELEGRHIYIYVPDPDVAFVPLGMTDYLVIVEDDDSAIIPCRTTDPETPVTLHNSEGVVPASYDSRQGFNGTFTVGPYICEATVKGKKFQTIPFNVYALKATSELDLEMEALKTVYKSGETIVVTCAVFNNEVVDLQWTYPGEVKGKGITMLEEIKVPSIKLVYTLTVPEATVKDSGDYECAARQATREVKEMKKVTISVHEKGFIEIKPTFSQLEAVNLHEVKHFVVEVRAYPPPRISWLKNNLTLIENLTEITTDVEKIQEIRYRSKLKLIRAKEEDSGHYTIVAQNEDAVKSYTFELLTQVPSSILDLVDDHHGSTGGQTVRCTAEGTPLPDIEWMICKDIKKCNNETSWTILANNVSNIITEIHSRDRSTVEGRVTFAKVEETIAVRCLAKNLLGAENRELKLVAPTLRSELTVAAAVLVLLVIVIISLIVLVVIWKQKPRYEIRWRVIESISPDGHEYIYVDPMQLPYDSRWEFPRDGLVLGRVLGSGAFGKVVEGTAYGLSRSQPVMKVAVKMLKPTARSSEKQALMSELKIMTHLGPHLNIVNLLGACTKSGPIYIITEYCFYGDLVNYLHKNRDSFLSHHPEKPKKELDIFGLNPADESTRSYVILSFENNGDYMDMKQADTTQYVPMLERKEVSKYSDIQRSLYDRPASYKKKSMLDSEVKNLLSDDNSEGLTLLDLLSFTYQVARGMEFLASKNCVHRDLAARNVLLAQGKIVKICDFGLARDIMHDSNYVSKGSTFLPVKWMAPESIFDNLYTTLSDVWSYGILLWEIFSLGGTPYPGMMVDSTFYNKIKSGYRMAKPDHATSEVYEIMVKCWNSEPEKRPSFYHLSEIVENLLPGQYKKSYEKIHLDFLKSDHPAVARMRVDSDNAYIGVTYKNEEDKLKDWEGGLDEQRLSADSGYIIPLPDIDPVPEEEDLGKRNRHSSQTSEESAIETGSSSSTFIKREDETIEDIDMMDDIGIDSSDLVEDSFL

Regarding `COc1cc2nccc(Oc3ccc(OCCCOc4c(C)cccc4C)cc3)c2cc1OC` [Example 799, 4-{4-[3-(2,6-Dimethylphenoxy)propoxy]phenoxy}-6,7-dimethoxyquinoline], the pIC50 – broadly, −log10 of the IC50, conventionally taken in molar units – is 7.85.
Same read-out and setting: the figure for `COc1cc2nccc(Oc3ccc(NC(=S)NC(=O)c4ccc(C)cc4C)cc3Cl)c2cc1OC` [Example 1016, N-{3-Chloro-4-[(6,7-dimethoxy-4-quinolyl)oxy]phenyl}-N′-(2,4-dimethylbenzoyl)thiourea] is 7.32; for `COc1cc2nccc(Oc3ccc(NC(=S)NC(=O)c4cc(C)ccc4C)cc3Cl)c2cc1OC` [Example 1017, N-{3-Chloro-4-[(6,7-dimethoxy-4-quinolyl)oxy]phenyl}-N′-(2,5-dimethylbenzoyl)thiourea] it is 7.32.
For the compound `COc1cc2nccc(Oc3ccc(NC(=S)NC(=O)N(CCCl)CCCl)cc3Cl)c2cc1OC` [Example 1049, N-{3-Chloro-4-[(6,7-dimethoxy-4-quinolyl)oxy]phenyl}-[{[di(2-chloroethyl)amino]carbonyl}amino]methanethioamide], the pIC50 is 7.36.
On to `COc1cc2nccc(Oc3ccc(NC(=S)NC(=O)c4ccc(C5CCCCC5)cc4)cc3)c2cc1OC` [Example 1124, N-(4-Cyclohexylbenzoyl)-N′-{4-[(6,7-dimethoxy-4-quinolyl)oxy]phenyl}thiourea], for which the negative logarithm of the IC50 (pIC50) was below 7.00 and the inhibition (in general, how much of the control response was suppressed) at 0.1 µM worked out at 22%.
The matching figures for `COc1cc2nccc(Oc3ccc(NC(=S)NC(=O)c4ccc(C5CCCCC5)cc4)cc3Cl)c2cc1OC` [Example 1127, N-{3-Chloro-4-[(6,7-dimethoxy-4-quinolyl)oxy]phenyl}-N′-(4-cyclohexylbenzoyl)thiourea]: below 7.00 and 8%.
In the case of `COc1cc2nccc(Oc3ccc(NC(=S)NC(=O)c4cc(C)cc(C)c4)cc3)c2cc1OC` [Example 1129, N-{4-[(6,7-Dimethoxy-4-quinolyl)oxy]phenyl}-N′-(3 5-dimethylbenzoyl)thiourea], the negative-log IC50 (pIC50) is below 7.00 and the inhibition at 0.1 µM turned out to be 48%.
For the compound `CCN(C(=S)NC(=O)CCc1ccccc1OC)c1ccc(Oc2ccnc3cc(OC)c(OC)cc23)cc1` [Example 1142, N-{4-[(6,7-Dimethoxy-4-quinolyl)oxy]phenyl}-N-ethyl-N′-[3-(2-methoxyphenyl)propanoyl]thiourea], the pIC50 is 7.10.
Turning to `CCN(C(=S)NC(=O)C1CC1c1ccccc1)c1ccc(Oc2ccnc3cc(OC)c(OC)cc23)cc1` (stereo not drawn) [Example 1143, N-{4-[(6,7-Dimethoxy-4-quinolyl)oxy]phenyl}-N-ethyl-N′-[(2-phenylcyclopropyl)carbonyl]thiourea], the negative-log IC50 (pIC50) was below 7.00 and the inhibition at 0.1 µM turned out to be 32%.
`COc1cc2nccc(Oc3ccc(NC(=S)NC(=O)c4cccnc4)cc3)c2cc1OC` [Example 1152, N-{4-[(6,7-Dimethoxy-4-quinolyl)oxy]phenyl}-N′-(3-pyridylcarbonyl)thiourea]: the negative-log IC50 (pIC50) was above 8.00.
With `COc1cc2ncnc(Oc3ccc(NC(=S)NC(=O)c4ccccc4C(F)(F)F)cc3)c2cc1OC` [Example 1157, N-{4-[(6,7-Dimethoxy-4-quinazolinyl)oxy]phenyl}-N′-[2-(trifluoromethyl)benzoyl]thiourea], the negative logarithm of the IC50 (pIC50) is above 8.00.
`COc1cc2ncnc(Oc3ccc(NC(=S)NC(=O)c4cc(Cl)cc(Cl)c4)cc3)c2cc1OC` [Example 1158, N-(3,5-Dichlorobenzoyl)-N′-{4-[(6,7-dimethoxy-4-quinazolinyl)oxy]phenyl}thiourea]: the negative logarithm of the IC50 (pIC50) was 7.34.
With `COc1cc2nccc(Oc3ccc(NC(=S)NC(=O)c4cc(Cl)cc(Cl)c4)c(Cl)c3)c2cc1OC` [Example 1159, N-{2-Chloro-4-[(6,7-dimethoxy-4-quinolyl)oxy]phenyl}-N′-(3,5-dichlorobenzoyl)thiourea], the negative logarithm of the IC50 (pIC50) is below 7.00.
Turning to `COc1cc2nccc(Oc3ccc(NC(=S)NC(=O)c4ccccc4F)cc3F)c2cc1OC` [Example 1160, N-{4-[(6,7-Dimethoxy-4-quinolyl)oxy]-3-fluorophenyl}-N′-(2-fluorobenzoyl)thiourea], the pIC50 was above 8.00.
With `COc1cc2ncnc(Oc3ccc(NC(=S)NC(=O)c4ccccc4F)cc3)c2cc1OC` [Example 1161, N-{4-[(6,7-Dimethoxy-4-quinazolinyl)oxy]phenyl}-N′-(2-fluorobenzoyl)thiourea], the pIC50 is above 8.00.
For `COc1cc2ncnc(Oc3ccc(NC(=S)NC(=O)c4c(Cl)cccc4Cl)cc3)c2cc1OC` [Example 1162, N-(2,6-Dichlorobenzoyl)-N′-{4-[(6,7-dimethoxy-4-quinazolinyl)oxy]phenyl}thiourea], the negative-log IC50 (pIC50) was 7.89.
`COc1cc2nccc(Oc3ccc(NC(=S)NC(=O)c4cccc(F)c4)c(Cl)c3)c2cc1OC` [Example 1163, N-{2-Chloro-4-[(6,7-dimethoxy-4-quinolyl)oxy]phenyl}-N′-(3-fluorobenzoyl)thiourea]: the negative logarithm of the IC50 (pIC50) was below 7.00.
On the same count and under the same terms, the figure for `COc1cc2ncnc(Oc3ccc(NC(=S)NC(=O)c4cccc(F)c4)cc3)c2cc1OC` [Example 1164, N-{4-[(6,7-Dimethoxy-4-quinazolinyl)oxy]phenyl}-N′-(3-fluorobenzoyl)thiourea] is above 8.00; for `COc1cc2nccc(Oc3ccc(NC(=S)NC(=O)c4cccc(Br)c4)c(Cl)c3)c2cc1OC` [Example 1165, N-(3-Bromobenzoyl)-N′-{2-chloro-4-[(6,7-dimethoxy-4-quinolyl)oxy]phenyl}thiourea] it is below 7.00; for `COc1cc2nccc(Oc3ccc(NC(=S)NC(=O)c4ccc(Br)cc4)cc3)c2cc1OC` [Example 1166, N-(4-Bromobenzoyl)-N′-{4-[(6,7-dimethoxy-4-quinolyl)oxy]phenyl}thiourea] it is above 8.00.
Same read-out and setting: then `COc1cc2nccc(Oc3ccc(NC(=S)NC(=O)c4ccc(Br)cc4)c(Cl)c3)c2cc1OC` [Example 1167, N-(4-Bromobenzoyl)-N′-{2-chloro-4-[(6,7-dimethoxy-4-quinolyl)oxy]phenyl}thiourea], with below 7.00; and `COc1cc2ncnc(Oc3ccc(NC(=S)NC(=O)c4ccc(Br)cc4)cc3)c2cc1OC` [Example 1168, N-(4-Bromobenzoyl)-N′-{4-[(6,7-dimethoxy-4-quinazolinyl)oxy]phenyl}thiourea], with above 8.00.
Same read-out and setting: then `COc1cc2nccc(Oc3ccc(NC(=S)NC(=O)Cc4ccc(CBr)cc4)cc3)c2cc1OC` [Example 1169, N-{2-[4-(Bromomethyl)phenyl]acetyl}-N′-{4-[(6,7-dimethoxy-4-quinolyl)oxy]phenyl}thiourea], with 7.43; and `COc1cc2ncnc(Oc3ccc(NC(=S)NC(=O)CCCCCl)cc3)c2cc1OC` [Example 1170, N-(5-Chloropentanoyl)-N′-{4-[(6,7-dimethoxy-4-quinazolinyl)oxy]phenyl}thiourea], with above 8.00.
Take `COc1cc2nccc(Oc3ccc(NC(=S)NC(=O)Cc4cccs4)cc3)c2cc1OC` [Example 1171, N-{4-[(6,7-Dimethoxy-4-quinolyl)oxy]phenyl}-N′-[2-(2-thienyl)acetyl]thiourea]: the pIC50 is 7.89.
`COc1cc2ncnc(Oc3ccc(NC(=S)NC(=O)Cc4cccs4)cc3)c2cc1OC` [Example 1172, N-{4-[(6,7-Dimethoxy-4-quinazolinyl)oxy]phenyl}-N′-[2-(2-thienyl)acetyl]thiourea]: the negative-log IC50 (pIC50) is 7.47.
